# Source: patent US12606520B2, “Calpain-2 inhibitor compounds and methods of treatment” (WESTERN UNIVERSITY OF HEALTH SCIENCES, priority 2020, dated 2026)
# Read-outs that look alike come from different tables or passages of the source.
# Key:
# [1] = PK in mice after iv injection of liposomal NA112: plasma; assay type: in vivo; conditions: for concentration at 0.0167 hr / concentration at 0.0833 hr / concentration at 0.25 hr / concentration at 0.5 hr / concentration at 1 hr / concentration at 2 hr / concentration at 4 hr / concentration at 8 hr / concentration at 16 hr / concentration at 24 hr: iv, 10 mg/kg, mice iv 10 mg/kg liposomes
# Procedure: NA112 was prepared in liposomes at a concentration of 1.5 mg/ml. Mice were injected in the tail vein with 200 μl of NA112 in liposomes (corresponding to a dose of 10 mg/kg) and were sacrificed at the following time-points: 1, 5, 15, 30 min, 1, 2, 4, 8, 16 and 24 h. Blood was collected and plasma rapidly prepared by centrifugation. Brains were also collected. NA112 in plasma and in brain homogenates was assayed with LC/Ms and the sensitivity of the assay was 1 ng/ml. Experiments were performed in duplicate (A1 and A2 in Table 3). Results were averaged for preparing the figure and calculating the half-life of NA112 in plasma and in brain.
# A two-compartment model was used to analyze the data from FIG. 14. This assumes that there is a rapid distribution of the drug from the plasma to various organs, followed by a slower elimination of the drug form the plasma. […] In FIG. 16, changes in NA112 plasma concentrations fitted with the 2-compartment model. The data from FIG. 14 are fitted with the 2-compartment model equation, showing the very good fit between the predicted values and the observed values.
# calpain-1 = biological target: T1, calpain-1 (Mus musculus, UniProt O35350); assay: Calpain-1 activity in WT mouse cerebellar homogenate (20 μM Ca2+), Suc-Leu-Tyr-AMC cleavage; assay type: biochemical; design: from tissue; host or cells: wild-type mouse cerebellar (P2) homogenate; conditions: 20 μM calcium, read-out: IC50, 20 μM Ca^2+ (Calpain-1)
# T1 sequence (O35350 1-713): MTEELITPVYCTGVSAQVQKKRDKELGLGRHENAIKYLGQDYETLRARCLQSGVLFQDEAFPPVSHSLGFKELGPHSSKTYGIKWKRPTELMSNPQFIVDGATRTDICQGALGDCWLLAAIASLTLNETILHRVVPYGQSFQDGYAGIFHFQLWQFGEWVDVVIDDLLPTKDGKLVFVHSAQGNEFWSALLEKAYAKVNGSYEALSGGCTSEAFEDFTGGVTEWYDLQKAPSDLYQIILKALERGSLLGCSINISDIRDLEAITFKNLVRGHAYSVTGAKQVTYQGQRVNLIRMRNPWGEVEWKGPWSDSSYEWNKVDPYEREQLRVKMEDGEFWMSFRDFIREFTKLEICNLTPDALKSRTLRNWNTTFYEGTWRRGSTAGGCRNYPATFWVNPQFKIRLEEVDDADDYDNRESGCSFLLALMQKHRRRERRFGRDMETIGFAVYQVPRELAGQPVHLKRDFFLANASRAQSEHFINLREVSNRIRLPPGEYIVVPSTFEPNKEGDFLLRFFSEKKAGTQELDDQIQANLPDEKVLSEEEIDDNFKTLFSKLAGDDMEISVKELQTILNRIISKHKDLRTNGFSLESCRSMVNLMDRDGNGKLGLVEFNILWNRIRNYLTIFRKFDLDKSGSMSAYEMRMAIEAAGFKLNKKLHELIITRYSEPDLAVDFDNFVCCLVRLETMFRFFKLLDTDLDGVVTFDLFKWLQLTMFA
# T1 sequence (O88456 1-268 partner): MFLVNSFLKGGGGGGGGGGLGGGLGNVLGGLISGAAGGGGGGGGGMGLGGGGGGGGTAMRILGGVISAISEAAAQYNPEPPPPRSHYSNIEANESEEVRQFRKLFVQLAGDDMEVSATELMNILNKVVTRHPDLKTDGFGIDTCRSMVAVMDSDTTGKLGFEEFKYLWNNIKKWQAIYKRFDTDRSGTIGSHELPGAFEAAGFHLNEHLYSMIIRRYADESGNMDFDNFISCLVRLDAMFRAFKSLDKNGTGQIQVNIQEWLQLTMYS
# Procedure: Cerebellar homogenates from wild-type (WT) or calpain-1 Knock-out (KO) mice were incubated with 20 μM calcium to activate calpain-1 or with 2 mM calcium to activate calpain-2, respectively, and increasing concentrations of NA112 (12). Calpain activity was measured by the cleavage of Succinyl-Leu-Tyr-7-amino-4-methylcoumarin (Suc-Leu-Tyr-AMC), resulting in increased fluorescence. Activity is normalized to the value measured in the presence of vehicle (DMSO).
# WT or calpain-1 KO mouse cerebellar P2 homogenate (crude synaptosomal fraction) were used for measuring inhibitory activity of compounds against the mouse endogenous calpain-1/-2. Each reaction contains 100 ul of WT or calpain-1 KO mouse cerebellar P2 homogenate+0, 20 or 2000 uM Ca^2++0-10,000 nM NA184.
# Calpain-1 activity=calpain activity under 20 uM Ca^2+ in WT mice
# [2] = 2-compartmental model, mice iv 10 mg/kg in liposomes
# [3] = mouse, read-out: Plasma concentration A1
# [4] = mouse, read-out: Plasma concentration A2
# [5] = mouse, read-out: Plasma concentration Mean
smiles,measurement,setting,value
"CCC(NC(=O)[C@H](CC(C)C)NC(=O)NCc1ccccc1)C(=O)C(=O)NCc1cc(OC)cc(OC)c1 (mixture of isomers) [NA112, (2S)-2-(3-benzylureido)-N-(1-((3,5-dimethoxybenzyl)amino)-1,2-dioxopentan-3-yl)-4-methylpentanamide]",A,[1]; [2],28944.68 ng/mL
same,B,[1]; [2],42.70 ng/mL
same,T½α,[1]; [2],0.23 h
same,T½β,[1]; [2],7.80 h
same,α,[1]; [2],3.01 h⁻¹
same,β,[1]; [2],0.09 h⁻¹
same,half-life,"[1]; mouse, 2-compartment model, mice iv 10 mg/kg in liposomes",7.8 h
same,AUC from zero to infinity,"[1]; mouse, 2-compartmental model, mice iv 10 mg/kg in liposomes, read-out: AUC0-00",17000 ng·h/mL
same,concentration at 0.0167 hr,[1]; [3],45300 ng/mL
same,concentration at 0.0167 hr,[1]; [4],63500 ng/mL
same,concentration at 0.0167 hr,[1]; [5],54400 ng/mL
same,concentration at 0.0833 hr,[1]; [3],116000 ng/mL
same,concentration at 0.0833 hr,[1]; [4],69100 ng/mL
same,concentration at 0.0833 hr,[1]; [5],92300 ng/mL
same,concentration at 0.25 hr,[1]; [3],2120 ng/mL
same,concentration at 0.25 hr,[1]; [4],939 ng/mL
same,concentration at 0.25 hr,[1]; [5],1530 ng/mL
same,concentration at 0.5 hr,[1]; [3],6760 ng/mL
same,concentration at 0.5 hr,[1]; [4],432 ng/mL
same,concentration at 0.5 hr,[1]; [5],3590 ng/mL
same,concentration at 1 hr,[1]; [3],5550 ng/mL
same,concentration at 1 hr,[1]; [4],390 ng/mL
same,concentration at 1 hr,[1]; [5],2970 ng/mL
same,concentration at 2 hr,[1]; [3],107 ng/mL
same,concentration at 2 hr,[1]; [4],84 ng/mL
same,concentration at 2 hr,[1]; [5],95.5 ng/mL
same,concentration at 4 hr,[1]; [3],34.6 ng/mL
same,concentration at 4 hr,[1]; [4],30 ng/mL
same,concentration at 4 hr,[1]; [5],32.3 ng/mL
same,concentration at 8 hr,[1]; [3],17.4 ng/mL
same,concentration at 8 hr,[1]; [4],20.6 ng/mL
same,concentration at 8 hr,[1]; [5],19 ng/mL
same,concentration at 16 hr,[1]; [3],10.8 ng/mL
same,concentration at 16 hr,[1]; [4],9.79 ng/mL
same,concentration at 16 hr,[1]; [5],10.3 ng/mL
same,concentration at 24 hr,[1]; [3],5.63 ng/mL
same,concentration at 24 hr,[1]; [4],4.67 ng/mL
same,concentration at 24 hr,[1]; [5],5.15 ng/mL
same,IC50,calpain-1,1380 nM
